Data as given in patent US9125824B1 (InnoVitamin Organics, LLC, priority 2010, dated 2015).

Assay: storage stability of trans-resveratrol under controlled temperature and humidity
Assay type: physicochemical
Details: stored at 10.0° C. (50 degrees F.) to approximately 30° C. (86 degrees F.), humidity less than 35 percent
Method: (50 degrees F.) to approximately 30° C.
Twenty five (25) kilograms of fine powder consisting of pomace, vines and leaves is stored in a cool, dark, dry location for shipping to the dietary supplement manufacturing facility. The temperature range of the storage area is in a range of between approximately 10.0° C. (50 degrees F.) to approximately 30° C. (86 degrees F.) and the dry location has a humidity level of less than 35 percent water vapor in the air.

stability during storage and processing: remain stable
stability during storage and processing (listed as organic trans-resveratrol): remains a stable compound
Structure (SMILES): Oc1ccc(/C=C/c2cc(O)cc(O)c2)cc1 [trans-resveratrol]
